Experimental data as given in ChEMBL document CHEMBL6153034, “Synthesis of dolutegravir derivatives modified by 1,2,3-triazole structure and their anti-inflammatory activity in LPS-induced BV2 cells” (Bioorg Med Chem Lett, 2025).
The source made the active and inactive calls.

Columns and labels:
[1] = Acute toxicity in female Kunming mouse assessed as effect on organ coefficient of lung at 250 mg/kg administered via gavage; type: organism-based; details: in vivo, po
[2] = test system: BV-2; assay: Antiinflammatory activity in LPS-induced mouse BV-2 cells assessed as decrease in TNF-alpha production preincubated for 2 hrs followed by LPS addition and measured after 24 hrs by qRT-PCR analysis; type: functional, cell-based; details: dose 5-10 µM, time 26.0 hrs
[3] = Acute toxicity in male Kunming mouse assessed as histopathological changes in kidney at 250 mg/kg administered via gavage by H and E staining based analysis; type: organism-based; details: in vivo, po
[4] = Acute toxicity in female Kunming mouse assessed as effect on organ coefficient of liver at 250 mg/kg administered via gavage; type: organism-based; details: in vivo, po
[5] = Acute toxicity in male Kunming mouse assessed as effect on organ coefficient of spleen at 250 mg/kg administered via gavage; type: organism-based; details: in vivo, po
[6] = Acute toxicity in male Kunming mouse assessed as histopathological changes in spleen at 250 mg/kg administered via gavage by H and E staining based analysis; type: organism-based; details: in vivo, po
[7] = Cytotoxicity against mouse BV-2 cells assessed as cell viability at 1 uM by MTT assay relative to control; type: toxicity, cell-based; details: read-out: Activity
[8] = test system: BV-2; assay: Antiinflammatory activity in LPS-induced mouse BV-2 cells assessed as decrease in IL-6 production preincubated for 2 hrs followed by LPS addition and measured after 24 hrs by qRT-PCR analysis; type: functional, cell-based; details: dose 5-10 µM, time 26.0 hrs
[9] = Acute toxicity in male Kunming mouse assessed as effect on organ coefficient of kidney at 250 mg/kg administered via gavage; type: organism-based; details: in vivo, po
[10] = Acute toxicity in female Kunming mouse assessed as effect on body weight at 250 mg/kg administered via gavage for 14 days; type: organism-based; details: in vivo, po, 336 h, time 14 day
[11] = Acute toxicity in male Kunming mouse assessed as histopathological changes in lung at 250 mg/kg administered via gavage by H and E staining based analysis; type: organism-based; details: in vivo, po
[12] = molecular target: Signal transducer and activator of transcription 3 (Mus musculus) (UniProt P42227); assay: Inhibition of STAT3 phosphorylation at Tyr705 residue in LPS-induced mouse BV-2 cells at 5 to 10 uM preincubated for 2 hrs followed by LPS addition and measured after 3 hrs by Western blot analysis; type: cell-based; details: dose 5-10 µM, time 5.0 hrs
[13] = test system: BV-2; assay: Antiinflammatory activity in LPS induced mouse BV-2 cells assessed as downregulation of IL-1beta mRNA expression level preincubated for 2 hrs followed by LPS addition and measured after 24 hrs by qRT-PCR analysis; type: functional, cell-based; details: dose 5-10 µM, time 26.0 hrs
[14] = test system: BV-2; assay: Antiinflammatory activity in LPS-induced mouse BV-2 cells assessed as downregulation of COX-2 protein expression level preincubated for 2 hrs followed by LPS addition and measured after 24 hrs by Western blot analysis; type: functional, cell-based; details: dose 5-10 µM, time 26.0 hrs
[15] = Acute toxicity in female Kunming mouse assessed as histopathological changes in kidney at 250 mg/kg administered via gavage by H and E staining based analysis; type: organism-based; details: in vivo, po
[16] = test system: BV-2; assay: Antiinflammatory activity in LPS induced mouse BV-2 cells assessed as downregulation of TNF-alpha mRNA expression level preincubated for 2 hrs followed by LPS addition and measured after 24 hrs by qRT-PCR analysis; type: functional, cell-based; details: dose 5-10 µM, time 26.0 hrs
[17] = test system: BV-2; assay: Antiinflammatory activity in LPS-induced mouse BV-2 cells assessed as reduction in NO production preincubated for 2 hrs followed by LPS addition and measured after 24 hrs by Griess reagent based analysis; type: functional, cell-based; details: dose 5-10 µM, time 26.0 hrs
[18] = Acute toxicity in female Kunming mouse assessed as effect on organ coefficient of kidney at 250 mg/kg administered via gavage; type: organism-based; details: in vivo, po

Chain of Signal transducer and activator of transcription 3 (Mus musculus) (P42227 whole entry): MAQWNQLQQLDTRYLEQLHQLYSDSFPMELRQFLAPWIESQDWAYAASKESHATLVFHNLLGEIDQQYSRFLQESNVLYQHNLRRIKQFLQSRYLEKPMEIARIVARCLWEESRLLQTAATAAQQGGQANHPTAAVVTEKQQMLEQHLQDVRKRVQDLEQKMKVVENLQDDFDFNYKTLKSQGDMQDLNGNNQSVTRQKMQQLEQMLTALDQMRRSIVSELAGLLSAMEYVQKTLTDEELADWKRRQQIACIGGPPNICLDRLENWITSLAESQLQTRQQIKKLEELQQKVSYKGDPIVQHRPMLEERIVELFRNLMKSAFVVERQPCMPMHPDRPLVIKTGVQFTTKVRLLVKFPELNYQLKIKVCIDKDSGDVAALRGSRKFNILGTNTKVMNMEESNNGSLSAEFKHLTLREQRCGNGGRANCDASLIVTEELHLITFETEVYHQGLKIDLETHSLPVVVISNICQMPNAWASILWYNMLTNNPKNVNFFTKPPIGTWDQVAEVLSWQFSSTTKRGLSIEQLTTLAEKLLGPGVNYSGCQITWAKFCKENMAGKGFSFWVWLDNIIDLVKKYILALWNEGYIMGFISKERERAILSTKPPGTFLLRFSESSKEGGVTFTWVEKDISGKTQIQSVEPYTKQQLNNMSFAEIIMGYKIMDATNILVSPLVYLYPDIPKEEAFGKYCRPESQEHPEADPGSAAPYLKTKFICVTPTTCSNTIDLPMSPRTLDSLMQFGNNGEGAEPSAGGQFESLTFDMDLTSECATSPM

COc1c2n(cc(C(=O)Nc3cccc(-c4cn(-c5ccccc5Cl)nn4)c3)c1=O)C[C@@H]1OCC[C@@H](C)N1C2=O
active: Activity [2] Dose-dependent-effect | Activity [8] Dose-dependent-effect | inhibition [12] | Activity [13] Dose-dependent-effect | Activity [14] Dose-dependent-effect | Activity [16] Dose-dependent-effect | Activity [17] Dose-dependent-effect
88%: viability at 1 µM [7]
Non-toxic: Activity [1] | Activity [3] | Activity [4] | Activity [5] | Activity [6] | Activity [9] | Activity [10] | Activity [11] | Activity [15] | Activity [18]
